Source: PubChem BioAssay (NCI)
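The concentration for 50% growth inhibition is given as GI50. TGI marks complete inhibition of growth.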

Tests used:
Experiment in all cases: NCI tumour cell line growth inhibition, 384-well format
[1] = tested on: SF-295 CNS
[2] = tested on: LOX IMVI melanoma
[3] = tested on: COLO 205 colon
[4] = tested on: UACC-257 melanoma
[5] = tested on: NCI-H322M lung
[6] = tested on: K-562 leukemia
[7] = tested on: OVCAR-5 ovarian
[8] = tested on: NCI-H226 lung
[9] = tested on: ACHN renal
[10] = tested on: MCF7 breast
[11] = tested on: RPMI-8226 leukemia
[12] = tested on: MOLT-4 leukemia
[13] = tested on: SK-MEL-5 melanoma
[14] = tested on: MALME-3M melanoma
[15] = tested on: EKVX NSCLC
[16] = tested on: SK-MEL-28 melanoma
[17] = tested on: NCI-H460 NSCLC
[18] = tested on: M14 melanoma
[19] = tested on: MDA-MB-435 melanoma
[20] = tested on: SR leukemia
[21] = tested on: OVCAR-8 ovarian
[22] = tested on: A549 NSCLC
[23] = tested on: NCI/ADR-RES ovarian
[24] = tested on: CCRF-CEM leukemia
[25] = tested on: HOP-62 NSCLC
[26] = tested on: KM12 colon
[27] = tested on: HOP-92 NSCLC
[28] = tested on: TK-10 renal
[29] = tested on: 786-0 renal
[30] = tested on: OVCAR-3 ovarian
[31] = tested on: HCT-15 colon
[32] = tested on: SW-620 colon
[33] = tested on: U251 glioblastoma
[34] = tested on: OVCAR-4 ovarian
[35] = tested on: MDA-MB-231 breast
[36] = tested on: HT29 colon
[37] = tested on: MDA-MB-468 breast
[38] = tested on: RXF 393 renal
[39] = tested on: UACC-62 melanoma
[40] = tested on: SK-OV-3 ovarian
[41] = tested on: CAKI-1 renal
[42] = tested on: SN12C renal
[43] = tested on: HCC-2998 colon
[44] = tested on: NCI-H522 lung
[45] = tested on: NCI-H23 lung
[46] = tested on: A498 renal
[47] = tested on: SNB-75 CNS
[48] = tested on: PC-3 prostate
[49] = tested on: IGROV1 ovarian
[50] = tested on: BT-549 breast
[51] = tested on: SF-268 CNS
[52] = tested on: DU-145 prostate
[53] = tested on: UO-31 renal
[54] = tested on: SF-539 CNS
[55] = tested on: SNB-19 CNS
[56] = tested on: HS 578T breast
[57] = tested on: HL-60(TB) leukemia
[58] = tested on: T-47D breast
[59] = tested on: HCT-116 colon

CN(C[C@@H]1COCCO1)S(=O)(=O)Nc1ccc2ccc3ncc(-c4cnn(C)c4)cc3c(=O)c2c1
GI50 [1]: 1.12 µM
TGI [1]: 10.9 µM
GI50 [2]: 5.53 µM
TGI [2]: > 100 µM
GI50 [3]: 24.4 µM
TGI [3]: > 100 µM
GI50 [4]: > 100 µM
TGI [4]: > 100 µM
GI50 [5]: 4.99 µM
TGI [5]: > 100 µM
GI50 [6]: 6.92 µM
TGI [6]: > 100 µM
GI50 [7]: 24 µM
TGI [7]: > 100 µM
GI50 [8]: 1.77 µM
TGI [8]: > 100 µM
GI50 [9]: 2.56 µM
TGI [9]: > 100 µM
GI50 [10]: 5.9 µM
TGI [10]: > 100 µM
GI50 [11]: 1.36 µM
TGI [11]: 5.21 µM
GI50 [12]: 1.58 µM
TGI [12]: 3.03 µM
GI50 [13]: 2.61 µM
TGI [13]: 19.2 µM
GI50 [14]: 3.48 µM
TGI [14]: 73.6 µM
GI50 [15]: 16.2 µM
TGI [15]: > 100 µM
GI50 [16]: > 100 µM
TGI [16]: > 100 µM
GI50 [17]: 3.45 µM
TGI [17]: 62.1 µM
GI50 [18]: 3.67 µM
TGI [18]: > 100 µM
GI50 [19]: 21.6 µM
TGI [19]: > 100 µM
GI50 [20]: 2.49 µM
TGI [20]: 7.48 µM
GI50 [21]: 6.02 µM
TGI [21]: > 100 µM
GI50 [22]: 8.08 µM
TGI [22]: > 100 µM
GI50 [23]: 3.56 µM
TGI [23]: 25.5 µM
GI50 [24]: 3.12 µM
TGI [24]: 9.46 µM
GI50 [25]: 5.14 µM
TGI [25]: > 100 µM
GI50 [26]: 0.31 µM
TGI [26]: > 100 µM
GI50 [27]: 2.08 µM
TGI [27]: 10.8 µM
GI50 [28]: 8.38 µM
TGI [28]: > 100 µM
GI50 [29]: 5.58 µM
TGI [29]: > 100 µM
GI50 [30]: 12.3 µM
TGI [30]: > 100 µM
GI50 [31]: 3.09 µM
TGI [31]: > 100 µM
GI50 [32]: 7.12 µM
TGI [32]: > 100 µM
GI50 [33]: 6.34 µM
TGI [33]: > 100 µM
GI50 [34]: 3.34 µM
TGI [34]: 61 µM
GI50 [35]: 8.45 µM
TGI [35]: > 100 µM
GI50 [36]: 14.4 µM
TGI [36]: > 100 µM
GI50 [37]: 1.63 µM
TGI [37]: 5.2 µM
GI50 [38]: 5.6 µM
TGI [38]: > 100 µM
GI50 [39]: 3.36 µM
TGI [39]: > 100 µM
GI50 [40]: 1.45 µM
TGI [40]: 14.5 µM
GI50 [41]: 1.89 µM
TGI [41]: > 100 µM
GI50 [42]: 1.64 µM
TGI [42]: 8.8 µM
GI50 [43]: 39.6 µM
TGI [43]: > 100 µM
GI50 [44]: 2.68 µM
TGI [44]: 9.07 µM
GI50 [45]: 0.588 µM
TGI [45]: 5.43 µM
GI50 [46]: 0.808 µM
TGI [46]: 62.5 µM
GI50 [47]: 2.18 µM
TGI [47]: 21.5 µM
GI50 [48]: 5.71 µM
TGI [48]: > 100 µM
GI50 [49]: 2.13 µM
TGI [49]: 9 µM
GI50 [50]: 2.1 µM
TGI [50]: 45.5 µM
GI50 [51]: 5.68 µM
TGI [51]: > 100 µM
GI50 [52]: 5.46 µM
TGI [52]: > 100 µM
GI50 [53]: 8.88 µM
TGI [53]: > 100 µM
GI50 [54]: 1.63 µM
TGI [54]: 15.2 µM
GI50 [55]: 27.2 µM
TGI [55]: > 100 µM
GI50 [56]: 1.99 µM
TGI [56]: 8.1 µM
GI50 [57]: 3.32 µM
TGI [57]: 21 µM
GI50 [58]: 3.5 µM
TGI [58]: 59.5 µM

O=C(O)C1(Cc2cccc(Nc3nccs3)n2)CCC(Oc2cccc(Cl)c2F)CC1 (configuration not stated)
GI50 [1]: 2.02 µM
TGI [1]: 23.4 µM
GI50 [2]: 10.3 µM
TGI [2]: 22.1 µM
GI50 [3]: 0.609 µM
TGI [3]: 21.7 µM
GI50 [4]: 19.6 µM
TGI [4]: 54.5 µM
GI50 [5]: 16.5 µM
TGI [5]: 32.6 µM
GI50 [6]: 0.313 µM
TGI [6]: 1.27 µM
GI50 [8]: 3.06 µM
TGI [8]: 20.1 µM
GI50 [9]: 14.6 µM
TGI [9]: 48.9 µM
GI50 [12]: 0.0886 µM
TGI [12]: 1.05 µM
GI50 [14]: 18.2 µM
TGI [14]: 37.4 µM
GI50 [15]: 10.1 µM
TGI [15]: 24.5 µM
GI50 [16]: 15.7 µM
TGI [16]: 61.1 µM
GI50 [18]: 0.381 µM
TGI [18]: 21.4 µM
GI50 [20]: 0.0417 µM
TGI [20]: 0.105 µM
GI50 [21]: 0.46 µM
TGI [21]: 20.3 µM
GI50 [22]: 8.56 µM
TGI [22]: 24.2 µM
GI50 [23]: 0.329 µM
TGI [23]: 13.3 µM
GI50 [24]: 0.249 µM
TGI [24]: 1.1 µM
GI50 [25]: 1.89 µM
TGI [25]: 20.2 µM
GI50 [26]: 0.124 µM
TGI [26]: 16.1 µM
GI50 [27]: 10.4 µM
TGI [27]: 22.9 µM
GI50 [28]: 13.3 µM
TGI [28]: 31.3 µM
GI50 [30]: 0.41 µM
TGI [30]: 18.2 µM
GI50 [31]: 5.24 µM
TGI [31]: 21.3 µM
GI50 [32]: 1.2 µM
TGI [32]: 19.9 µM
GI50 [34]: 16.6 µM
TGI [34]: 58.5 µM
GI50 [35]: 11.7 µM
TGI [35]: 31.3 µM
GI50 [36]: 4.21 µM
TGI [36]: 17.1 µM
GI50 [37]: 0.122 µM
TGI [37]: 0.288 µM
GI50 [59]: 0.0796 µM
TGI [59]: 17.6 µM
GI50 [38]: 0.358 µM
TGI [38]: 12.3 µM
GI50 [40]: 11.5 µM
TGI [40]: 26.3 µM
GI50 [41]: 11.3 µM
TGI [41]: 25.5 µM
GI50 [42]: 11.1 µM
TGI [42]: 26.4 µM
GI50 [43]: 16 µM
TGI [43]: 29.7 µM
GI50 [45]: 0.562 µM
TGI [45]: 20.8 µM
GI50 [46]: 11.6 µM
TGI [46]: 25 µM
GI50 [47]: 0.972 µM
TGI [47]: 28.5 µM
GI50 [48]: 11.7 µM
TGI [48]: 24.7 µM
GI50 [49]: 13.4 µM
TGI [49]: 27.6 µM
GI50 [50]: 0.573 µM
TGI [50]: 22.3 µM
GI50 [51]: 0.3 µM
TGI [51]: 28 µM
GI50 [52]: 10.7 µM
TGI [52]: 26.2 µM
GI50 [53]: 14 µM
TGI [53]: 27.7 µM
GI50 [54]: 3.09 µM
TGI [54]: 20.6 µM
GI50 [55]: 12.1 µM
TGI [55]: 29.6 µM
GI50 [56]: 0.0962 µM
TGI [56]: 17.9 µM
GI50 [57]: 0.397 µM
TGI [57]: 1.53 µM
